The results in this text go back to patent US10899763B2, “Crystalline forms of salts of fused penta-cyclic dihydrodiazepinocarbazolones, and uses thereof” (BEIGENE, LTD., priority 2017, dated 2021).

A word on the solubility: it is the dissolved amount per volume that the medium holds. The EC50 is the concentration giving half of the maximal effect. Usually IC50 stands for the concentration that inhibits the measured activity by half.

Where two headings read alike, the source gives them in different places.

Series [1] is described as follows: Kinetic solubility test in bio-relevant media and H2O. In kind it is physicochemical. Particulars: for solubility: thermodynamic from solid; for solubility / dissolution profile in bio-relevant media (FaSSIF and FeSSIF): RT; for dissolution profile in bio-relevant media (FaSSIF and FeSSIF): sampled at 1 hr, 4 hrs and 24 hrs. The protocol: About 20 mg of each sample (Forms A, B or C2) was equilibrated in 3.0 mL of three bio-relevant media, i.e., fasted state small intestinal fluid (FaSSIF), Fed State Simulating Intestinal Fluid (FeSSIF) and Simulated Gastric Fluid (SGF), or H2O into each 4-mL plastic vial. The suspensions were mixed via triturating (25 rpm) at RT, with each suspension sampled at the end of 1 hr, 4 hrs and 24 hrs, respectively.

Series [2] in a line: Phase I clinical safety study. Type of series: in vivo. The settings on record: capsules, 2.5-120 mg bid, 25 subjects.
Series [3] is described as follows: Hygroscopicity test (DVS isotherm, XRPD). Type of series: physicochemical. Particulars: for Water uptake % at 80% RH, Adsorption / Water uptake % at 80% RH, Desorption: DVS at 25° C.; for Hygroscopicity: concluded from the water uptake from adsorption cycle. The protocol: To investigate the solid form stability as a function of humidity, DVS isotherm plot (at 25° C.) and XRPD pattern were collected, see Table 11. The uptake percentage differences between desorption and adsorption are speculated to be related to the replacement of possible residual solvent with moisture.

Series [4] is described as follows: Solid form change on heating (XRPD, VT-XRPD). Type of series: physicochemical. The protocol:
Associated with the results of TGA/DSC and solution NMR, Form B was confirmed to be an anhydrate.
To confirm the form change during heating of Form C2, VT-XRPD was conducted under protection of nitrogen.

Series [5] in a line: Solid-state stability test. In kind it is physicochemical. The settings on record: HPLC. The protocol: Each sample (Forms A, B or C2) was exposed to both conditions of 25° C./60% RH and 40° C./75% RH. After one-week storage, all the samples were characterized by XRPD to test any solid form change and by HPLC to check the purity change.
Another series relates to MDA-MB-231 cells. Description: Synthetic lethality, CellTiter-Glo cell viability, MDA-MB-231. Type of series: cell-based. The settings on record: MDA-MB-231, 7-day exposure, table; read-out: EC50 for growth inhibition. As to the method:
(§1) MDA-MB-231 cells that is not BRCA gene mutant or other homologous recombination deficient were maintained in DMEM supplemented with fetal bovine serum (10% FBS), 100 units/ml penicillin and 0.1 mg/ml streptomycin. BRCA1-deficient cell line MDA-MB-436 was maintained in RPMI-1640 supplemented with 10% FBS, 100 units/ml penicillin and 0.1 mg/ml streptomycin. Both two cell lines were kept at 95% humidity and 5% CO2 in a 37° C. incubator.
(§2) The number of tumor cells seeded per well of a 96-well plate was optimized for each cell line to ensure logarithmic growth over the 7 days treatment period. Cells were left to attach for 16 hours and then treated with specific concentrations of test compounds. Following a 7-day exposure to the compound, the growth-inhibitory activity of compounds was determined using CellTiter-Glo luminescent cell viability assay (Promega). Luminescent signal was measured using PHERAstar FS reader (BMG Labtech). Cell viability was expressed as relative to mock treatment control. EC50 values for growth inhibition were calculated by fitting dose-dependent data to the four-parameter logistic model using XLfit software.

Series [6] relates to MDA-MB-436 (BRCA1 Deficient). Briefly: Synthetic lethality, CellTiter-Glo cell viability, MDA-MB-436. The settings on record: 7-day exposure, table, read-out: EC50 for growth inhibition. Type of series: cell-based, human. The protocol:
as §1, §2
(In general: Cellular ATP, detected with luciferase, serves as a proxy for viable cell number.)

Series [7] deals with intracellular PARP activity in HeLa cells. Briefly: Intracellular target inhibition: cellular PAR formation in hydrogen peroxide treated HeLa cells. In kind it is cell-based. Particulars: read-out: IC50 (nM) in PARylation assay. The protocol:
The assay was performed as follows:
Cells were plated into a 96-well plate with clear bottom and black wall at a density of 5000 cells per well (100 μL). […] In the following day, H2O2 solution in PBS (final concentration 200 μM) was added and the plate was kept at 37° C. for 5 minutes. Then the medium was gently removed by plate inversion, and the cells were fixed by ice-cold MeOH at −20° C. for 20 minutes. […] After removal of solution and repeated wash with PBS, the PAR polymer level was estimated by ArrayScan VTI (ThermoFisher). Percent inhibition was determined on the basis of the residual enzyme activity in the presence of increasing PARP inhibitor concentration. IC50 values were calculated by fitting dose-dependent data to the four-parameter logistic model using XLfit software.

Where [8] appears, read: FaSSIF, read-out: solubility in FaSSIF.
Setting [9] is: FeSSIF, read-out: solubility in FeSSIF.

For the compound `C[C@]12CCCN1CC1=NNC(=O)c3cc(F)cc4[nH]c2c1c34` [Crystalline Sesqui-Hydrate of Compound 1], the results for the solubility in series [1] (setting [8]) and in series [1] (setting [9]) were below 100 µg/mL and 1000 µg/mL, respectively. Besides, the “clinical safety and tolerability” value in series [2] is “safe and well tolerated”.
Take `C[C@]12CCCN1CC1=NNC(=O)c3cc(F)cc4[nH]c2c1c34` [Form A]: in series [3], the “Water uptake % at 80% RH, Adsorption” value is 1.9%; the “Water uptake % at 80% RH, Desorption” value worked out at 2.1%; the Hygroscopicity result is “Hygroscopic”. Further, the “form change after heating and cooling at ambient conditions (XRPD)” value in series [4] (heated to 170° C.) is given as “No form change”. In series [1], the “dissolution profile in bio-relevant media (FaSSIF and FeSSIF)” value (“dissolution profile” for short) was “good solubility was observed in FaSSIF and FeSSIF at the first time point, but the values went down after equilibrated for a longer time”. Also, in series [1] (listed as phosphate salt of Compound 1), the “dissolution profile” value was “higher solubility at the first time point, but the values went down after equilibrated for a longer time”. Besides, the “Purity of initial(%)” value in series [5] (25° C./60% RH (7 days)) was 100.1%. In addition, the “Purity of initial(%)” value in series [5] (40° C./75% RH (7 days)) is 100.1%.
`C[C@]12CCCN1CC1=NNC(=O)c3cc(F)cc4[nH]c2c1c34.O=C(O)/C=C\C(=O)O` [Form B]: in series [3], the “Water uptake % at 80% RH, Adsorption” value was found to be 0.7%. Also, the “Water uptake % at 80% RH, Desorption” value in series [3] was found to be 2.4%. Further, the Hygroscopicity entry in series [3] is reported as “Slightly hygroscopic”. For the same compound, the “form change after heating and cooling at ambient conditions (XRPD)” value in series [4] (heated to 150° C.) was “No form change”. Further, the figures for the “dissolution profile” value in series [1] and in series [1] (listed as maleate salt of Compound 1) were “Steady dissolution rate” and “steady dissolution profiles”, respectively. Besides, the figures for the solubility in series [1] (setting [8]) and in series [1] (setting [9]) were around 200 µg/mL and around 500 µg/mL, respectively. For the same compound, in series [1] (up to 24 hours), the “physical stability of the solid suspended in the media” value is listed as “physically stable”. Further, the “Purity of initial(%)” value stood at 100.2% in series [5] (25° C./60% RH (7 days)) and 100.1% in series [5] (40° C./75% RH (7 days)).
In the case of `C[C@]12CCCN1CC1=NNC(=O)c3cc(F)cc4[nH]c2c1c34.O=C(O)/C=C/C(=O)O` [Form C2], in series [3], the “Water uptake % at 80% RH, Adsorption” value came out at 0.2%; the “Water uptake % at 80% RH, Desorption” value is given as 0.3%; the Hygroscopicity entry was “Slightly hygroscopic”. Besides, the “physical stability at ambient conditions” value in series [4] (ambient conditions) is “good physical stability”. Further, the “form change during heating (VT-XRPD)” value in series [4] (heating to 140° C. and cooling back to 30° C. with N2 flow) is recorded as “a new form named as Form C3 was observed”. Further, the “dissolution profile” value in series [1] is “good solubility was observed in FaSSIF and FeSSIF at the first time point, but the values went down after equilibrated for a longer time”. Moreover, the “dissolution profile” value in series [1] (listed as fumarate salt of Compound 1) is “higher solubility at the first time point, but the values went down after equilibrated for a longer time”. The “Purity of initial(%)” value in series [5] (25° C./60% RH (7 days)) is recorded as 100.2%. For the same compound, the “Purity of initial(%)” value in series [5] (40° C./75% RH (7 days)) is given as 100.0%.
Consider `C[C@]12CCCN1CC1=NNC(=O)c3cc(F)cc4[nH]c2c1c34.O=C(O)/C=C/C(=O)O` [Form C3], for which the “time to convert back to Form C2 after exposure to ambient conditions” value in series [4] (~25° C./70% RH) was at most 1 h.
Consider `O=C(c1cc(Cc2n[nH]c(=O)c3ccccc23)ccc1F)N1CCN(C(=O)C2CC2)CC1` [Olaparib], for which the EC50 with MDA-MB-231 cells was around 5 µM; in series [6], 21 ± 7 nM.
Turning to `C[C@]1(c2nc3c(C(N)=O)cccc3[nH]2)CCCN1` [Veliparib], the IC50 in series [7] amounted to 2.66 nM. Further, the EC50 is above 10 µM in the series on MDA-MB-231 cells and 820 ± 300 nM in series [6].
